System: F344 Fisher rats
Assay: Production of in vivo lung metastatic hepatoma model: incidences of hepatocellular carcinoma and lung metastasis, survival (Example 1)
Parameters: species or system rat
Experimental: Animals used in this example were F344 Fisher rats (purchased from Charles River Japan Inc.).
Diethylnitrosoamine (hereinafter, referred to as “DEN”) and nitrosomorpholine (hereinafter, referred to as “NMOR”) were purchased from Tokyo Kasei Kogyo Co., Ltd.
DEN was diluted with physiological saline, and intraperitoneally injected in animals at a dose of 100 mg/kg body weight, or it was diluted with tap water to make the concentration of 50 ppm and administered via drinking water feeding bottle. NMOR was diluted with tap water to make the concentration of 120 ppm, and administered via a drinking water feeding bottle.
Animals were divided into four groups and treated as follows: Animals of the first group were given 50 ppm of DEN in drinking water for 16 weeks, and were sacrificed and subjected to autopsy in week 16. Animals of the second group were given 100 mg/kg body weight of DEN via intraperitoneal injection at the start of the experiment, and were sacrificed and subjected to autopsy in week 22. Animals of the third group were given 120 ppm of NMOR in drinking water for 22 weeks, and were sacrificed and subjected to autopsy in week 22. Animals of the fourth group were given 100 mg/kg body weight of DEN via intraperitoneal injection at the start of the experiment were given NMOR from the start to week 22 of the experiment, and were sacrificed and subjected to autopsy in week 22.
Liver and lung as well as other tissues were collected, fixed in formalin and stained with hematoxylin-eosin by the standard method to prepare specimens. Specimens were microscopically examined for presence of hepatocellular carcinoma in the liver and metastatic lesion in the lung to determine incidences of hepatocellular carcinoma and lung metastasis, which are shown in FIG. 1.

[1] = DEN 50 ppm in drinking water for 16 weeks, autopsy week 16
[2] = NMOR 120 ppm in drinking water for 22 weeks, autopsy week 22

Compound | incidence of hepatoma [1] [%] | lung metastasis [1] | incidence of hepatoma [2] [%] | lung metastasis (animals affected) [2]
CCN(CC)N=O [DEN, Diethylnitrosoamine] | 100 | no lung metastasis was observed |  | 
O=NN1CCOCC1 [NMOR, nitrosomorpholine] |  |  | 100 | only one animal

— patent US6632975B1, “Method for the production of in vivo model of hepatocellular carcinoma without lung metastasis” (Kabushiki Kaisha Daiyu-Kai Institute of Medical Science, priority 2000, dated 2003)
